{"source": "patent US10294247B2", "about": "“Beta-lactamase inhibitors” (VenatoRx Pharmaceuticals, Inc., priority 2014, dated 2019)", "format_in_all_cases": "cell-based", "key": {"[1]": {"tested_on": "S. aureus producing the Class A penicillinase PC-1", "experiment": "broth microdilution MIC assay, S. aureus PC-1", "conditions": "Staphylococcus aureus; partner antibiotic alone, no inhibitor; S. aureus producing Class A penicillinase PC-1; CAMHB", "excerpt": "(§1) To determine the ability of test compounds to potentiate the inhibition of the growth of bacterial strains that produce beta-lactamase enzymes, classic cell based broth microdilution MIC assays are employed. Six bacteria strains producing beta-lactamase enzymes are used: E. coli expressing the Class A Extended Spectrum Beta-Lactamase (ESBL) CTX-M-15, E. cloacae expressing the Class C P99, K. pneumoniae expressing the Class A carbapenemase KPC-3, P. aeruginosa expressing the Class B carbapenemase VIM-2, K. pneumoniae expressing the class A carbapenemase KPC-2 and the class B carbapenemase VIM-4, and S. aureus producing the Class A penicillinase PC-1. The assay is conducted in Cation Adjusted Mueller Hinton Broth (CAMHB, BD #212322, BD Diagnostic Systems, Sparks, Md.). Bacteria strains are grown for 3-5 hours in CAMBH broth. Test compounds are added to a microtiter plate in 2-fold serial dilutions in CAMHB in a final concentration range of 32 μg/mL to 0.25 μg/ml. An overlay of CAMHB containing a Beta-lactam is added to the compounds at a final static concentration of 4 μg/mL. […] After inoculation the plates are incubated for 16-20 hours at 37° C. then the Minimal Inhibitory Concentration (MIC) of the test compound is determined visually."}, "[2]": {"tested_on": "K. pneumoniae expressing the Class A carbapenemase KPC-3", "experiment": "broth microdilution MIC assay, K. pneumoniae KPC-3", "conditions": "Klebsiella pneumoniae, read-out: MIC alone", "excerpt": "as §1"}, "[3]": {"tested_on": "P. aeruginosa expressing the Class B carbapenemase VIM-2", "experiment": "broth microdilution MIC assay, P. aeruginosa VIM-2", "conditions": "Pseudomonas aeruginosa, read-out: MIC alone", "excerpt": "as §1"}, "[4]": {"tested_on": "K. pneumoniae expressing the class A carbapenemase KPC-2 and the class B carbapenemase VIM-4", "experiment": "broth microdilution MIC assay, K. pneumoniae KPC-2 and VIM-4", "conditions": "Klebsiella pneumoniae; partner antibiotic alone, no inhibitor; K. pneumoniae expressing KPC-2 and VIM-4; CAMHB", "excerpt": "as §1"}, "[5]": {"tested_on": "E. coli expressing the Class A Extended Spectrum Beta-Lactamase (ESBL) CTX-M-15", "experiment": "broth microdilution MIC assay, E. coli CTX-M-15", "conditions": "Escherichia coli, read-out: MIC alone", "excerpt": "as §1"}, "[6]": {"tested_on": "E. cloacae expressing the Class C P99", "experiment": "broth microdilution MIC assay, E. cloacae P99", "conditions": "Enterobacter cloacae, read-out: MIC alone", "excerpt": "as §1"}}, "data": [{"smiles": "CCN1CCN(C(=O)N[C@@H](C(=O)N[C@@H]2C(=O)N3[C@@H]2SC(C)(C)[C@@H]3C(=O)O)c2ccccc2)C(=O)C1=O", "note": "[Piperacillin]", "values": [{"measurement": "MIC", "setting": "[1]", "value": 64, "unit": "µg/mL"}]}, {"smiles": "C[C@@H](O)[C@H]1C(=O)N2C(C(=O)O)=C(S[C@@H]3CN[C@H](C(=O)N(C)C)C3)[C@H](C)[C@H]12", "note": "[Meropenem]", "values": [{"measurement": "MIC", "setting": "[2]", "value": "> 128", "unit": "µg/mL"}, {"measurement": "MIC", "setting": "[3]", "value": 16, "unit": "µg/mL"}, {"measurement": "MIC", "setting": "[4]", "value": 64, "unit": "µg/mL"}]}, {"smiles": "CC(C)(O/N=C(\\C(=O)N[C@@H]1C(=O)N2C(C(=O)[O-])=C(C[n+]3ccccc3)CS[C@H]12)c1csc(N)n1)C(=O)O", "note": "[Ceftazidime]", "values": [{"measurement": "MIC", "setting": "[5]", "value": "> 128", "unit": "µg/mL"}, {"measurement": "MIC", "setting": "[6]", "value": 128, "unit": "µg/mL"}]}]}
